Data on six substances can be found in patent publication US7915276B2, “Berberrubine derivatives having antifungal activities” (priority 2006, dated 2011).

For assay [1], the target named is T1, chitin synthase 1 of Candida albicans chs2 Δ chs 3 Δ (Candida albicans, UniProt P23316).
T1 construct: Crude enzyme was prepared using the Candida albicans chs2 Δ chs 3 Δ mutant; endogenous in cells; host or cells: Candida albicans chs2Δ/chs2Δ chs3Δ/chs3Δ mutant; 130,000 x g membrane pellet
In words: In vitro enzyme assay for chitin synthase 1 of Candida albicans (enzyme 1). The assay is classed as biochemical. The note with it: relative to polyoxin D (50% inhibitory activity = value 5). A digest of the protocol:
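Trypsin-activated crude membrane chitin synthase 1 from C. albicans chs2Δ chs3Δ was incubated 90 min at 30 °C with 1.1 mM UDP-[14C]GlcNAc and 2 mM cobalt acetate in Tris-HCl pH 7.5. Filtered TCA precipitate was counted by scintillation; values are scores 1–8 against polyoxin D (5 = same concentration).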

For assay [2], the target named is T2, chitin synthase 2 of Saccharomyces cerevisiae ECY38-38A(pAS6) (Saccharomyces cerevisiae, UniProt P14180).
T2 construct: made in house; host or cells: Saccharomyces cerevisiae ECY38-38A (chs1-23 chs2::LEU2 cal1/csd2) carrying plasmid pAS6, grown in galactose medium; 130,000 x g membrane pellet
The experiment in a line: In vitro enzyme assay for chitin synthase 2 of Saccharomyces cerevisiae (enzyme 2). The format is biochemical. The conditions noted are these: relative to polyoxin D (50% inhibitory activity = value 5). A digest of the protocol: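 Values are scores: 5 means 50% inhibition at the same concentration as polyoxin D, lower scores 2- to 16-fold higher concentration, higher scores ½ to ⅛. Radiolabel from 1.1 mM UDP-[14C]-GlcNAc was incorporated into TCA-insoluble chitin over 90 min at 30 °C (pH 7.5 Tris, 2 mM Co2+). The enzyme was a trypsin-activated membrane fraction from CHS2-only S. cerevisiae ECY38-38A(pAS6).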

The test system of assay [3] is Aspergillus flavus ATCC 64025. In words: In vitro antifungal activity (MIC), NCCLS method. The assay is classed as cell-based. The note with it: 48 hours. The text has this:
(§1) Candida albicans ATCC 10231, Candida lusitaniae ATCC 42720, Candida krusei ATCC 6258, Candida tropicalis ATCC 13803, Candida glabrata ATCC 48435, Candida parapsilosis ATCC 34136, Cryptococcus neoformans ATCC 36556, Aspergillus fumigatus ATCC 16424, Aspergillus flavus ATCC 64025, Aspergillus terreus ATCC 46941 and Mucor ramosissimus ATCC 90286 strains for the MIC (minimum inhibitory concentration) measurement were obtained from ATCC (American Type Culture Collection) in the U.S. The Candida albicans A207(clinical isolate) strain was used by isolating it from the patients.
(§2) The determination of MIC was performed according to the NCCLS (National Committee for Clinical Laboratory Standard) method. Each test sample solution was diluted two-fold and inoculated with a fungal suspension to reach a final inoculum size of 5×10^2 to 2.5×10^3 cell/mL. The Cryptococcus neoformans strain was cultured in the RPMI 1640 medium for 72 hours. Other strains were cultured for 48 hours.

In assay [4] the test system is Aspergillus fumigatus ATCC 16424. In words: In vitro antifungal activity (MIC), NCCLS method. The assay is classed as cell-based. The conditions noted are these: 48 hours.
Description: as §1, §2

The test system of assay [5] is Aspergillus terreus ATCC 46941. The experiment in a line: In vitro antifungal activity (MIC), NCCLS method. The note with it: 48 hours. The assay is classed as cell-based.
Description: as §1, §2

Assay [6] relates to Candida albicans A207 (clinical isolate). In words: In vitro antifungal activity (MIC), NCCLS method. The assay is classed as cell-based. The note with it: 48 hours.
Description: as §1, §2

Assay [7] deals with Candida albicans ATCC 10231. In words: In vitro antifungal activity (MIC), NCCLS method. The assay is classed as cell-based. The note with it: 48 hours.
Description: as §1, §2

The test system of assay [8] is Candida glabrata ATCC 48435. The experiment in a line: In vitro antifungal activity (MIC), NCCLS method. The assay is classed as cell-based. The conditions noted are these: Candida glabrata ATCC 48435; 48 hours.
Description: as §1, §2

The test system of the next assay is Candida krusei ATCC 6258. In words: In vitro antifungal activity (MIC), NCCLS method. The conditions noted are these: 48 hours. The assay is classed as cell-based.
Description: as §1, §2

Assay [9] has as its system Candida lusitaniae ATCC 42720. In words: In vitro antifungal activity (MIC), NCCLS method. The note with it: 48 hours. The assay is classed as cell-based.
Description: as §1, §2

Assay [10] concerns Candida parapsilosis ATCC 34136. The experiment in a line: In vitro antifungal activity (MIC), NCCLS method. The format is cell-based. The note with it: Candida parapsilosis ATCC 34136; 48 hours.
Description: as §1, §2

Assay [11] has as its system Candida tropicalis ATCC 13803. In words: In vitro antifungal activity (MIC), NCCLS method. The format is cell-based. The note with it: 48 hours.
Description: as §1, §2

In assay [12] the test system is Cryptococcus neoformans ATCC 36556. The experiment in a line: In vitro antifungal activity (MIC), NCCLS method. The format is cell-based. The conditions noted are these: RPMI 1640 medium, 72 hours.
Description: as §1, §2

Assay [13] relates to Mucor ramosissimus ATCC 90286. In words: In vitro antifungal activity (MIC), NCCLS method. The conditions noted are these: 48 hours. The assay is classed as cell-based.
Description: as §1, §2

T2 sequence (P14180 whole entry): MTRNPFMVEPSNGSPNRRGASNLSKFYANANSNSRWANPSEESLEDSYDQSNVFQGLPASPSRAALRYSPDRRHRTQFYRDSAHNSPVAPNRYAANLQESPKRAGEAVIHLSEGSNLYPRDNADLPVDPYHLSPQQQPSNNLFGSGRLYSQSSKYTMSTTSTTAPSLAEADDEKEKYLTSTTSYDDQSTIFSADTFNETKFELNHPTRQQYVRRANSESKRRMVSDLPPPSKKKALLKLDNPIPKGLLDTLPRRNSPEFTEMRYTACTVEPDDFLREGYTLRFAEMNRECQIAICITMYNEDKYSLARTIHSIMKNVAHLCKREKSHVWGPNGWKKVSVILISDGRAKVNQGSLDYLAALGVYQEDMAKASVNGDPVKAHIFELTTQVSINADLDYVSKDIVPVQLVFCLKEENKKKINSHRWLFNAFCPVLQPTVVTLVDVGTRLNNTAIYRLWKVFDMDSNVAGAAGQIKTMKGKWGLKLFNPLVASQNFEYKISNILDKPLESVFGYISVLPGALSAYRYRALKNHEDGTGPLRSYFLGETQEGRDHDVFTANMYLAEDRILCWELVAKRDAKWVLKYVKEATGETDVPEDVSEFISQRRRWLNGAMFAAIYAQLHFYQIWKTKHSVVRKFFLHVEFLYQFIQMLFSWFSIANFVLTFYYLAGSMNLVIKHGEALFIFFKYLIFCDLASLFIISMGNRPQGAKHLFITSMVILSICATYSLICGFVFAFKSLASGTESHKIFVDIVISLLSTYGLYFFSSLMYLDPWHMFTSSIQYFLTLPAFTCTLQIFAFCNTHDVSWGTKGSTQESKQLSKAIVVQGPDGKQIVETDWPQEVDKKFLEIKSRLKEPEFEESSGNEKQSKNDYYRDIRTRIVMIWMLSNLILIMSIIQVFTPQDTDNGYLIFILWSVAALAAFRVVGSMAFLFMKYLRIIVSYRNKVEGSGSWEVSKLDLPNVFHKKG
T1 sequence (P23316 whole entry, stated change not applied): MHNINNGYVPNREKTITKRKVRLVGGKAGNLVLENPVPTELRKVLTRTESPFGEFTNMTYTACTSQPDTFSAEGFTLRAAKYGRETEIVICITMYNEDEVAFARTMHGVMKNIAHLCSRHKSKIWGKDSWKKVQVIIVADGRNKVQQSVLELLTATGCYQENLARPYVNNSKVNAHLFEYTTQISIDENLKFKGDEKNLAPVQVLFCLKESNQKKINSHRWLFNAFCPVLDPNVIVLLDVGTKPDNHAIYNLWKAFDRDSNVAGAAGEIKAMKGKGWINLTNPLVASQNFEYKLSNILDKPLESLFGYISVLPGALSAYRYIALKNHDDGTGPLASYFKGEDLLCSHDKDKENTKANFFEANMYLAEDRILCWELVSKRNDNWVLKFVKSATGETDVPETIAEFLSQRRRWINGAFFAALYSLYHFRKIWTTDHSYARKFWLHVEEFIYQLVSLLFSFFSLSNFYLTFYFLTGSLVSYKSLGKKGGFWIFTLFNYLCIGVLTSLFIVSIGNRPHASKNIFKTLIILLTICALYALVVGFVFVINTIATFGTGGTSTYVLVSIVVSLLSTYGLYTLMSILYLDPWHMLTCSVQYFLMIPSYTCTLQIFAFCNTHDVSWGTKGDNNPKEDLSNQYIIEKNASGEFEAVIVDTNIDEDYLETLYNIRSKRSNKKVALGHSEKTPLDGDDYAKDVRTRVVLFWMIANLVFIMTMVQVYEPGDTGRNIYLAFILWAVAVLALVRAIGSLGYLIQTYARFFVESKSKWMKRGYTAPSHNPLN

With “13-(4-Isopropylbenzyl)-9-O-(6-chlorohexyl)berberrubine chloride [Compound No. 54]”, the “Relative activity Enzyme 1” value in assay [1] is 2 (Compounds having the inhibitory activity at 2-fold, 4-fold, 8-fold and 16-fold higher concentrations than that of polyoxin D were given the values of 4, 3, 2 and 1, respectively). Also, in assay [2], the “Relative activity Enzyme 2” value was 6 (compounds having the inhibitory activity at ½, ¼ and ⅛ lower concentrations than that of polyoxin D were given the values of 6, 7 and 8, respectively). Also, the “MIC (minimum inhibitory concentration)” value was determined as 8 µg/mL in assay [3]; 2 µg/mL in assay [4]; 8 µg/mL in [5]; 0.5 µg/mL in assay [6]; 0.5 µg/mL in assay [7]; 2 µg/mL in assay [8]. The “MIC (minimum inhibitory concentration)” value against Candida krusei ATCC 6258 was 1 µg/mL; in assay [9] it was 2 µg/mL; in [10], 2 µg/mL; in assay [11], 0.5 µg/mL; in assay [12] it was 1 µg/mL; in assay [13], 4 µg/mL.
Take “13-(4-Isopropylbenzyl)-9-O-octylberberrubine chloride [Compound No. 52]”: the “Relative activity Enzyme 1” value in [1] is 2 (Compounds having the inhibitory activity at 2-fold, 4-fold, 8-fold and 16-fold higher concentrations than that of polyoxin D were given the values of 4, 3, 2 and 1, respectively). Also, the “Relative activity Enzyme 2” value in [2] is 6 (compounds having the inhibitory activity at ½, ¼ and ⅛ lower concentrations than that of polyoxin D were given the values of 6, 7 and 8, respectively). Also, the “MIC (minimum inhibitory concentration)” value was 4 µg/mL in [3]; 2 µg/mL in assay [4]; 4 µg/mL in [5]; 0.25 µg/mL in [6]; 0.25 µg/mL in assay [7]; 1 µg/mL in assay [8]. Also, the “MIC (minimum inhibitory concentration)” value is 1 µg/mL against Candida krusei ATCC 6258; 0.5 µg/mL in assay [9]; 1 µg/mL in [10]; 0.125 µg/mL in assay [11]; 0.5 µg/mL in assay [12]; 2 µg/mL in [13].
With “13-(4-tert-Butylbenzyl)-9-O-hexylberberrubine chloride [Compound No. 41]”, the “Relative activity Enzyme 1” value in assay [1] was 4 (Compounds having the inhibitory activity at 2-fold, 4-fold, 8-fold and 16-fold higher concentrations than that of polyoxin D were given the values of 4, 3, 2 and 1, respectively). Besides, in assay [2], the “Relative activity Enzyme 2” value was 6 (compounds having the inhibitory activity at ½, ¼ and ⅛ lower concentrations than that of polyoxin D were given the values of 6, 7 and 8, respectively). Besides, the “MIC (minimum inhibitory concentration)” value in [3] worked out at 8 µg/mL; in assay [4] it was 2 µg/mL; in assay [5], 8 µg/mL; in assay [6], 0.25 µg/mL; in assay [7], 0.25 µg/mL; in assay [8], 2 µg/mL. Moreover, the “MIC (minimum inhibitory concentration)” value was found to be 1 µg/mL in the assay on Candida krusei ATCC 6258; 0.5 µg/mL in assay [9]; 2 µg/mL in assay [10]; 0.125 µg/mL in assay [11]; 0.5 µg/mL in assay [12]; 4 µg/mL in assay [13].
“13-(4-tert-Butylbenzyl)-9-O-octylberberrubine iodide [Compound No. 10]”: the “Relative activity Enzyme 1” value in [1] is 3 (Compounds having the inhibitory activity at 2-fold, 4-fold, 8-fold and 16-fold higher concentrations than that of polyoxin D were given the values of 4, 3, 2 and 1, respectively). Also, in assay [2], the “Relative activity Enzyme 2” value is 5 (A compound having the same inhibitory activity as that of polyoxin D at the same concentration was given the value 5). For the same substance, the “MIC (minimum inhibitory concentration)” value in assay [3] was 4 µg/mL; in assay [4] it was 2 µg/mL; in [5], 4 µg/mL; in [6], 0.25 µg/mL; in assay [7], 0.25 µg/mL; in [8], 2 µg/mL. Moreover, the “MIC (minimum inhibitory concentration)” value against Candida krusei ATCC 6258 was found to be 1 µg/mL; in [9] it was 0.5 µg/mL; in assay [10], 2 µg/mL; in assay [11], 0.125 µg/mL; in assay [12], 1 µg/mL; in [13], 2 µg/mL.
Consider “13-(4-tert-Butylbenzyl)-9-O-crotylberberrubine chloride [Compound No. 46]”, for which the “Relative activity Enzyme 1” value in assay [1] is 2 (Compounds having the inhibitory activity at 2-fold, 4-fold, 8-fold and 16-fold higher concentrations than that of polyoxin D were given the values of 4, 3, 2 and 1, respectively). In addition, in assay [2], the “Relative activity Enzyme 2” value is 6 (compounds having the inhibitory activity at ½, ¼ and ⅛ lower concentrations than that of polyoxin D were given the values of 6, 7 and 8, respectively). Also, the “MIC (minimum inhibitory concentration)” value was determined as 8 µg/mL in [3]; 2 µg/mL in [4]; 4 µg/mL in [5]; 0.5 µg/mL in [6]; 0.5 µg/mL in assay [7]; 4 µg/mL in assay [8]. Besides, the “MIC (minimum inhibitory concentration)” value in the assay with Candida krusei ATCC 6258 came to 1 µg/mL; in assay [9] it was 1 µg/mL; in assay [10], 4 µg/mL; in assay [11] it was 0.5 µg/mL; in [12], 1 µg/mL; in assay [13], 4 µg/mL.
For the substance “13-(4-tert-Butylbenzyl)-9-O-crotylberberrubine bromide [Compound No. 14]”, the “Relative activity Enzyme 1” value in assay [1] is 2 (Compounds having the inhibitory activity at 2-fold, 4-fold, 8-fold and 16-fold higher concentrations than that of polyoxin D were given the values of 4, 3, 2 and 1, respectively). Also, in assay [2], the “Relative activity Enzyme 2” value is listed as 5 (A compound having the same inhibitory activity as that of polyoxin D at the same concentration was given the value 5). Also, the “MIC (minimum inhibitory concentration)” value in assay [3] was found to be 8 µg/mL; in assay [4], 2 µg/mL; in assay [5], 4 µg/mL; in [6], 0.5 µg/mL; in assay [7], 0.5 µg/mL; in [8], 4 µg/mL. For the same substance, the “MIC (minimum inhibitory concentration)” value against Candida krusei ATCC 6258 was 1 µg/mL; in assay [9], 1 µg/mL; in assay [10], 4 µg/mL; in assay [11] it was 0.5 µg/mL; in assay [12], 1 µg/mL; in assay [13], 4 µg/mL.
